Tested on: C. formosanus
Test: Preliminary laboratory dose-range test of colored bait matrix
Format: in vivo, Coptotermes formosanus
Description: (3) Incorporation of Nutrients. The dry colored alpha cellulose was then mixed with the nutritive liquid (described in U.S. Pat. No. 6,585,991 which is incorporated by reference in its entirety). The nutritive liquid was prepared by weighing 1.25 g lecithin (USB #18240), 0.450 g ergosterol (Sigma #E-6510), 3.75 g ethyl alcohol (Quantum MT #194A31), and 650 g drinking water (Barbe's dairy, West Wego, La.) into a 1 L glass bottle and mixing well using a glass bar. The opening of the bottle was covered with a foam stopper, the bottle cap was loosely placed on top of the stopper, and the stopper covered with foil. After autoclaving for 20 min at 120° C., the bottle was closed tightly and allowed to cool down. Under a laminar flow hood, yeast hydrolysate (ICN Biomed. #103304) was added to the lecithin-containing mixture using a sterile spatula and the mixture was shaken until the yeast hydrolysate was incorporated. The bottle was tightly closed. Using a sterile spatula, 667 ml lecithin-yeast hydrolysate-containing mixture was added to 333 g colored cellulose (at each of the calco oil blue V concentrations) and mixed well. The beaker was covered with foil and plastic to avoid contamination and loss of water. This mixture was stored at 5° C. up to 8 months or at room temperature for at least a month. The mixture was compacted and divided into pieces of about 25-50 g each at colorant concentrations of 50, 100, 225, 250, 500, and 750 ppm respectively. Chitin synthesis inhibitors such as Diflubenzuron (Ensystex) at a given concentration of 50, 100, 175, 200, and 250 ppm were individually weighed, dissolved in minimal amount of acetone (J. T. Baker #9010-03) in a 50 ml plastic tube, and added to the sterile liquid solution.
A concentration of 225 ppm Calco oil blue was effective as bait active ingredient taking a mean time to kill C. formosanus of 2.0 months under laboratory conditions.

CCCCC(CC)CNc1ccc(NCC(CC)CCCC)c2c1C(=O)c1ccccc1C2=O (stereo not drawn) [Calco oil blue V, 9,10-anthracenedione, 1,4-bis[(2-ethylhexyl)amino]]
mean time to kill C. formosanus (225 ppm Calco oil blue, laboratory conditions): 2.0 months
repellence to the termites (225 ppm blue colorant in combination with a chitin synthesis inhibitor (50-175 ppm)): without any signs of repellence
time to induce FS termite mortality (225 ppm blue colorant in combination with a chitin synthesis inhibitor (50-175 ppm), preliminary results): ≤ 2 months
repellence to the termites (colorant doses higher than 500 ppm): Some repellence was observed
Bait consumption (concentrations greater than 500 and up to 1000 ppm): bait consumption was reduced
mean killing times (concentrations greater than 500 and up to 1000 ppm, compared with 225 ppm): not significantly different
